Data from patent publication US20240238314A1, “TREATMENT OF ESSENTIAL TREMOR” (Sage Therapeutics, Inc., priority 2021, published 2024).

System: individuals with essential tremor
Assay: Phase 2 placebo-controlled study, Compound 1 60 mg once daily for 28 days (reducible to 45 mg or 30 mg): TETRAS performance subscale part 4 upper limb tremor score and tremor amplitude
Format: in vivo, human
Conditions: for % CFB in Tremor Amplitude: calculated from TETRAS part 4 ratings
Experimental: 4) Upper limb tremor: Tremor is assessed during three maneuvers: forward horizontal reach posture, lateral “wing beating” posture and finger-nose-finger testing. Each upper limb is assessed and scored individually. The forward horizontal reach posture is held for 5 seconds. The lateral wing beating posture is held for 20 seconds. The finger-nose-finger movement is executed three times. Amplitude assessment should be estimated using the maximally displaced point of the hand at the point of greatest displacement along any single plane. For example, the amplitude of a pure supination-pronation tremor, pivoting around the wrist would be assessed at either the thumb or fifth digit.
For all three hand tremor ratings: 0=no tremor. 1=tremor is barely visible. 1.5=tremor is visible, but less than 1 cm. 2=tremor is 1-<3 cm amplitude. 2.5=tremor is 3-<5 cm amplitude. 3=tremor is 5-<10 cm amplitude. 3.5=tremor is 10-<20 cm amplitude. 4=tremor is >20 cm amplitude.
As used herein, “The Essential Tremor Rating Assessment Scale (TETRAS) performance subscale part 4 upper limb tremor total score” refers to the “upper limb tremor” under metric or characteristic 4 of the TETRAS performance subscale set forth above. Each of the three tasks are performed on each limb to give a total of 6 tasks, wherein each task is scored 0, 1, 1.5, 2, 2.5, 3, 3.5, or 4, and each score is added to give a total score no greater than 24.
[formula] • wherein Tf is a final tremor amplitude; • Ti is an initial tremor amplitude; • Rf is a final tremor rating; • Ri is an initial tremor rating; • α is 0.05; and • N=6, for 6 tasks in TETRAS performance subscale part 4 upper limb tremor total score.
Participants were 18 to 80 years of age, inclusive, diagnosed of ET of at least 3 years duration with scores of at least 1.5 for each of the six items that comprised the combined total upper limb TETRAS (total performance subscale part 4) with the total score for the dominant upper limb (the sum of the 3 items for either the right or left upper limb, whichever is dominant) being at least 5.5, at both Screening and predose on Day 1.
Groups received either Compound 1 as orally administered tablet(s) (each tablet providing 15 mg of Compound 1) or matching placebo at 1:1 ratio. Tablets were formulated as immediate release, white to off-white, round, film-coated tablets containing 15 mg of Compound 1, filler, disintegrant, lubricant, and glidant, wherein the tablets were formed using direct compression and coated with Opadry® II white as the film coating.
Participants were randomized to receive Compound 1 60 mg or placebo once daily in the morning on a 1:1 basis. If participants reported a TEAE considered by investigator to be related to Compound 1 and not tolerable, investigator might reduce the dose of Compound 1 from 60 mg in 15 mg decrements (i.e., 60 mg, to 45 mg, to 30 mg), as medically appropriate. If intolerable TEAEs persist at the 30 mg dose, Compound 1 was permanently stopped.
This study included a Screening Period of up to 28 days, a 29-day treatment period consisting of 28 days of dosing with the end of treatment visit intended to be on Day 29 at trough, and a 14-day follow-up period relative to final dose. Study patients were not taking other medications for essential tremor during the 28-day treatment period.
The model included the change from baseline at each visit as the dependent variable, treatment, baseline TETRAS performance subscale part 4 upper limb tremor score, assessment timepoint, and timepoint-by-treatment as explanatory variables. All explanatory variables were treated as a fixed effect. The main comparison was (difference in least mean square [LSMEAN]) between Compound 1 and placebo at the 29-day timepoint.
Model-based point estimates (i.e., LSMEAN, 95% confidence intervals, and p-values) were reported where applicable. An unstructured covariance structure was used to model the within-subject errors. […]

[1] = Baseline TETRAS Upper Limb Part 4 < 12, Day 29
[2] = Baseline TETRAS Upper Limb Part 4 ≥ 12, Day 29
[3] = Baseline part 4 upper limb total score ≥ 12, Day 8
[4] = Baseline part 4 upper limb total score ≥ 12, Day 15, 5 hr postdose
[5] = Baseline part 4 upper limb total score ≥ 12, Day 15, 8 hr postdose
[6] = Baseline part 4 upper limb total score ≥ 12, Day 15, predose
[7] = Baseline part 4 upper limb total score ≥ 12, Day 22
[8] = Baseline part 4 upper limb total score ≥ 12, Day 42
[9] = Full Analysis Set, Day 15, 5 hr postdose
[10] = Full Analysis Set, Day 15, 8 hr postdose
[11] = Full Analysis Set, Day 15, predose
[12] = Per-Protocol Set, Day 15, 5 hr postdose
[13] = Per-Protocol Set, Day 15, 8 hr postdose
[14] = Per-Protocol Set, Day 15, predose

## COC[C@@]1(O)CC[C@H]2[C@@H](CC[C@@H]3[C@@H]2CC[C@]2(C)[C@@H](C(=O)Cn4nnc(C)n4)CC[C@@H]32)C1 [Compound 1]
[1]
  LSMean (SE) CFB in TETRAS performance subscale part 4 upper limb tremor total score: −1.06
  LSMean Difference (CI) vs placebo in CFB in TETRAS performance subscale part 4 upper limb tremor total score: 0.45
  Mean (SD) % CFB in TETRAS performance subscale part 4 upper limb tremor total score: −7.76%
  % CFB in Tremor Amplitude: −18.40%
[2]
  Frequency of % CFB in tremor amplitude category 15-<30%, number of participants: 6
  Frequency of % CFB in tremor amplitude category 15-<30%, percent of participants: (28.6)
  Frequency of % CFB in tremor amplitude category 30-<50%, number of participants: 2
  Frequency of % CFB in tremor amplitude category 30-<50%, percent of participants: (9.5)
  Frequency of % CFB in tremor amplitude category 50-<75%, number of participants: 2
  Frequency of % CFB in tremor amplitude category 50-<75%, percent of participants: (9.5)
  Frequency of % CFB in tremor amplitude category <15%, number of participants: 11
  Frequency of % CFB in tremor amplitude category <15%, percent of participants: (52.4)
  Frequency of % CFB in tremor amplitude category >75%, number of participants: 0
  Mean (SD) % CFB in TETRAS performance subscale part 4 upper limb tremor total score: −20.47%
  % CFB in Tremor Amplitude: −41.00%
[3]
  LSMean difference vs placebo in change from baseline in TETRAS performance subscale part 4 upper limb tremor total score: −1.33
  Model-based LSMean (SE) change from baseline in TETRAS performance subscale part 4 upper limb tremor total score: −1.99 (0.340)
[4]
  LSMean difference vs placebo in change from baseline in TETRAS performance subscale part 4 upper limb tremor total score: −1.60
  Model-based LSMean (SE) change from baseline in TETRAS performance subscale part 4 upper limb tremor total score: −3.12 (0.449)
[5]
  LSMean difference vs placebo in change from baseline in TETRAS performance subscale part 4 upper limb tremor total score: −1.38
  Model-based LSMean (SE) change from baseline in TETRAS performance subscale part 4 upper limb tremor total score: −2.84 (0.445)
[6]
  LSMean difference vs placebo in change from baseline in TETRAS performance subscale part 4 upper limb tremor total score: −1.37
  Model-based LSMean (SE) change from baseline in TETRAS performance subscale part 4 upper limb tremor total score: −2.15 (0.371)
[7]
  LSMean difference vs placebo in change from baseline in TETRAS performance subscale part 4 upper limb tremor total score: −1.48
  Model-based LSMean (SE) change from baseline in TETRAS performance subscale part 4 upper limb tremor total score: −2.56 (0.383)
Baseline part 4 upper limb total score ≥ 12, Day 29
  LSMean difference vs placebo in change from baseline in TETRAS performance subscale part 4 upper limb tremor total score: −1.70
[8]
  LSMean difference vs placebo in change from baseline in TETRAS performance subscale part 4 upper limb tremor total score: 0.22
  Model-based LSMean (SE) change from baseline in TETRAS performance subscale part 4 upper limb tremor total score: −1.59 (0.475)
Full Analysis Set
  Percent reduction from baseline in tremor amplitude: 36
Full Analysis Set, Day 8
  LSMean difference vs placebo in change from baseline in TETRAS performance subscale part 4 upper limb tremor total score: −0.81
  Model-based LSMean (SE) change from baseline in TETRAS performance subscale part 4 upper limb tremor total score: −1.67 (0.287)
[9]
  LSMean difference vs placebo in change from baseline in TETRAS performance subscale part 4 upper limb tremor total score: −0.40
  Model-based LSMean (SE) change from baseline in TETRAS performance subscale part 4 upper limb tremor total score: −2.64 (0.452)
[10]
  LSMean difference vs placebo in change from baseline in TETRAS performance subscale part 4 upper limb tremor total score: −0.27
  Model-based LSMean (SE) change from baseline in TETRAS performance subscale part 4 upper limb tremor total score: −2.36 (0.441)
[11]
  LSMean difference vs placebo in change from baseline in TETRAS performance subscale part 4 upper limb tremor total score: −0.48
  Model-based LSMean (SE) change from baseline in TETRAS performance subscale part 4 upper limb tremor total score: −1.78 (0.344)
Full Analysis Set, Day 22
  LSMean difference vs placebo in change from baseline in TETRAS performance subscale part 4 upper limb tremor total score: −0.77
  Model-based LSMean (SE) change from baseline in TETRAS performance subscale part 4 upper limb tremor total score: −2.10 (0.360)
Full Analysis Set, Day 29
  Frequency of % CFB in tremor amplitude category 15-<30%, number of participants: 5
  Frequency of % CFB in tremor amplitude category 15-<30%, percent of participants: (23.8)
  Frequency of % CFB in tremor amplitude category 30-<50%, number of participants: 6
  Frequency of % CFB in tremor amplitude category 30-<50%, percent of participants: (28.6)
  Frequency of % CFB in tremor amplitude category 50-<75%, number of participants: 3
  Frequency of % CFB in tremor amplitude category 50-<75%, percent of participants: (14.3)
  Frequency of % CFB in tremor amplitude category <15%, number of participants: 5
  Frequency of % CFB in tremor amplitude category <15%, percent of participants: (23.8)
  Frequency of % CFB in tremor amplitude category >75%, number of participants: 2
  Frequency of % CFB in tremor amplitude category >75%, percent of participants: (9.5)
  LSMean difference vs placebo in change from baseline in TETRAS performance subscale part 4 upper limb tremor total score: −1.07 (−2.14, −0.00)
  Mean (SD) % CFB in TETRAS performance subscale part 4 upper limb tremor total score: −18.05%
  Model-based LSMean (SE) change from baseline in TETRAS performance subscale part 4 upper limb tremor total score: −2.31 (0.401)
  % CFB in Tremor Amplitude: −35.80%
Full Analysis Set, Day 29, listed as Cmpd 1
  LSMean difference vs placebo in change from baseline in TETRAS performance subscale part 4 upper limb tremor total score: −1.07
Full Analysis Set, Day 42
  LSMean difference vs placebo in change from baseline in TETRAS performance subscale part 4 upper limb tremor total score: 0.62
  Model-based LSMean (SE) change from baseline in TETRAS performance subscale part 4 upper limb tremor total score: −1.23 (0.407)
Per-Protocol Set, Day 8
  LSMean difference vs placebo in change from baseline in TETRAS performance subscale part 4 upper limb tremor total score: −0.97
  Model-based LSMean (SE) change from baseline in TETRAS performance subscale part 4 upper limb tremor total score: −1.78 (0.319)
[12]
  LSMean difference vs placebo in change from baseline in TETRAS performance subscale part 4 upper limb tremor total score: −0.71
  Model-based LSMean (SE) change from baseline in TETRAS performance subscale part 4 upper limb tremor total score: −2.83 (0.500)
[13]
  LSMean difference vs placebo in change from baseline in TETRAS performance subscale part 4 upper limb tremor total score: −0.70
  Model-based LSMean (SE) change from baseline in TETRAS performance subscale part 4 upper limb tremor total score: −2.66 (0.500)
[14]
  LSMean difference vs placebo in change from baseline in TETRAS performance subscale part 4 upper limb tremor total score: −0.83
  Model-based LSMean (SE) change from baseline in TETRAS performance subscale part 4 upper limb tremor total score: −1.94 (0.367)
Per-Protocol Set, Day 22
  LSMean difference vs placebo in change from baseline in TETRAS performance subscale part 4 upper limb tremor total score: −1.15
  Model-based LSMean (SE) change from baseline in TETRAS performance subscale part 4 upper limb tremor total score: −2.38 (0.408)
Per-Protocol Set, Day 29
  LSMean difference vs placebo in change from baseline in TETRAS performance subscale part 4 upper limb tremor total score: −1.37
  Model-based LSMean (SE) change from baseline in TETRAS performance subscale part 4 upper limb tremor total score: −2.50 (0.452)
Per-Protocol Set, Day 42
  LSMean difference vs placebo in change from baseline in TETRAS performance subscale part 4 upper limb tremor total score: 0.36
  Model-based LSMean (SE) change from baseline in TETRAS performance subscale part 4 upper limb tremor total score: −1.48 (0.474)
Subjects with baseline TETRAS performance subscale part 4 upper limb tremor total score ≥12
  Percent reduction from baseline in tremor amplitude: 41%
